# From patent publication US9370554B2, “Method for treating breast cancer with prolactin receptor agonists” (Orbis Health Solutions LLC, priority 2010, dated 2016)
# Tests used:
# [1] = test system: MCF-7 human breast cancer cells; assay: Tumorsphere formation assay, MCF-7 (Example 1); type: cell-based; details: 11 days of treatment, hPRL 0.5 μg/ml, Dox 25 ng/ml, tumorspheres greater than 100 μm, FIG. 1
# Procedure: Tumor sphere formation assay and aldehyde dehydrogenase (ALDH) activity measured by flow cytometry were used to measure the functional response of the CSCs after 11 days of co-treatment with human prolactin (hPRL) and doxorubicin (Dox). MCF-7 and MMTV-neu cells were cultured by standard methods known in the art. Briefly, unsorted MCF-7 cells were plated in ultra-low attachment plate (Corning Inc, Corning, N.Y.) at a density of 5000 cells/ml in serum-free Dulbecco's Modified Eagle Medium—F12 (DMEM-F12) supplemented with 0.4% bovine serum albumin (BSA), 10 ng/mL of basic fibroblast growth factor (bFGF), 20 ng/ml of epidermal growth factor (EGF), 5 μg/ml of insulin (all from Sigma-Aldrich Co., St. Louis, Mo.). Tumorspheres were allowed to form in 37° C. with 5% CO2 for 10 days. Culture medium were replaced two times in the course of treatment. Similar culturing method was applied to MMTV-neu cells in the exception of MMTV-neu cells were plated at a density of 200,000 cells/ml. Cells were treated with 0.5 μg/ml of hPRL, 25 ng/ml of doxorubicin or a combination of 0.5 μg/ml hRPL and 25 ng/ml doxorubicin. After 11 days of treatment, the cells were analyzed for tumorsphere formation and ALDH activity levels. Tumorsphere formation was determined by spheres formed in the culture medium. Spheres number were counted manually under four random fields of the 24-well at 40× magnification.
# [2] = test system: MCF-7 human breast cancer cells; assay: ALDH activity by flow cytometry (ALDEFLUOR), MCF-7 tumorspheres (Example 1); type: cell-based; details: 11 days, hPRL 0.5 μg/ml, Dox 25 ng/ml, FIG. 2
# Procedure: (§1) MCF-7 human breast cancer cells and primary mouse breast cancer cells isolated from MMTV-neu transgenic mice were used in this study. Tumor sphere formation assay and aldehyde dehydrogenase (ALDH) activity measured by flow cytometry were used to measure the functional response of the CSCs after 11 days of co-treatment with human prolactin (hPRL) and doxorubicin (Dox).
# (§2) Cells were treated with 0.5 μg/ml of hPRL, 25 ng/ml of doxorubicin or a combination of 0.5 μg/ml hRPL and 25 ng/ml doxorubicin. After 11 days of treatment, the cells were analyzed for tumorsphere formation and ALDH activity levels.
# Accordingly, to determine the number of CSCs in a tumor sample, ALDH activity levels were determined by the ALDEFLUOR kit (StemCell Technologies, Vancouver, BC, Canada). Briefly, tumorspheres were dissociated by trypsin (Invitrogen, Carlsbad, Calif.) at 37° C. for 5 minutes and resuspended in ALDEFLUOR assay buffer containing ALDH substrate (BODIPY-aminoacetaldehyde, 1 μM per 1×10^6 cells). An aliquot of the cells were treated with 7.5 μM of diethylaminobenzaldehyde (DEAB), an inhibitor of ALDH, as the negative control. Samples were incubated in 37° C. with 5% CO2 for 45 minutes and analyzed by FACSCalibur (Becton Dickinson Co., Franklin Lakes, N.J.). The ALDH-positive gate was established using the negative control treated with DEAB.
# McNeuA implanted mice = assay: In vivo combination therapy on McNeuA implanted FVB mice (Example 2); design: species or system mouse; details: four-week regimen, weekly Dox with or without daily hPRL injection; for Time to relapse: X, Y are placeholders
# From the text: Finally, the efficacy of the treatment is examined in vivo by implanting McNeuA cell into FVB mice. Two weeks after tumor cell inoculation, a four-week treatment regimen is applied (weekly Dox with or without daily hPRL injection). Tumor growth and the time to relapse is monitored and compared among groups.
# [3] = test system: MCF-7, SKBR3 and McNeuA breast cancer cell lines; assay: ALDH testing, cell lines of Example 2; type: cell-based, human and mouse; details: Example 2 cell lines; 12, 24 and 48 hours of treatment
# From the text: (§3) Three breast cancer cell lines are used in this assay: two human breast cancer cell lines, MCF-7 (ER^high, HER2^low) and SKBR3 (ER^low, HER2^high), and one mouse breast cancer cell line that was established from HER2/neu transgenic mice (McNeuA). After establishing the dose response curves, all three cell lines will be used for two in vitro studies. The cells will be treated with a standard chemotherapeutic drug, doxorubicin (Dox) alone (Max or IC50) or in combination with hPRL (Max or IC50).
# Next, the CSC population is measured by two sets of the stem cell markers, aldehyde dehydrogenase (ALDH) and CD44^high/CD24^low after a 12-, 24- and 48 hours of treatment using flow cytometry methods as described in Example 2.
# [4] = test system: MCF-7, SKBR3 and McNeuA breast cancer cell lines; assay: Tumorsphere evaluation, all cell lines tested (Example 2); type: cell-based, human and mouse; details: 7 and 14 days of treatment
# From the text: as §3
# First, the functional response of CSCs is measured by standard colony formation and tumorsphere formation assays after 7- and 14 days of treatment using methods described above in Example 2.
# [5] = test system: primary mouse breast cancer cells isolated from MMTV-neu transgenic mice; assay: Tumorsphere formation assay, MMTV-neu primary cells (Example 1); type: cell-based; details: 11 days, hPRL 0.5 μg/ml, ±0.34, p<0.001, data not shown
# Procedure: as §1
# MCF-7 and MMTV-neu cells were cultured by standard methods known in the art. Briefly, unsorted MCF-7 cells were plated in ultra-low attachment plate (Corning Inc, Corning, N.Y.) at a density of 5000 cells/ml in serum-free Dulbecco's Modified Eagle Medium—F12 (DMEM-F12) supplemented with 0.4% bovine serum albumin (BSA), 10 ng/mL of basic fibroblast growth factor (bFGF), 20 ng/ml of epidermal growth factor (EGF), 5 μg/ml of insulin (all from Sigma-Aldrich Co., St. Louis, Mo.). Tumorspheres were allowed to form in 37° C. with 5% CO2 for 10 days. Culture medium were replaced two times in the course of treatment. […]
# as §2
# Tumorsphere formation was determined by spheres formed in the culture medium. Spheres number were counted manually under four random fields of the 24-well at 40× magnification.
molecule,measurement,setting,value
"COc1cccc2c1C(=O)c1c(O)c3c(c(O)c1C2=O)C[C@@](O)(C(=O)CO)C[C@@H]3O[C@H]1C[C@H](N)[C@H](O)[C@H](C)O1 [Dox, doxorubicin]",number of tumorspheres formed / tumorspheres formation,[1],negligible effect
same,number of ALDH+ cells (ALDH positive cell population),[2],no significant change
same,number of ALDH− cells,[2],decreased
same,Tumor size,McNeuA implanted mice,decrease
same,Time to relapse,McNeuA implanted mice,X days after last treatment
same,number of ALDH-negative cells,[3],reduced
same,number of ALDH-positive cells,[3],unaffected
same,tumorsphere formation (number and size of tumorspheres),[4],negligible affect
"human prolactin (protein, UniProt P01236 29-227, looked up) Prolactin: LPICPGGAARCQVTLRDLFDRAVVLSHYIHNLSSEMFSEFDKRYTHGRGFITKAINSCHTSSLATPEDKEQAQQMNQKDFLSLIVSILRSWNEPLYHLVTEVRGMQEAPEAILSKAVEIEEQTKRLLEGMELIVSQVHPETKENEIYPVWSGLPSLQMADEESRLSAYYNLLHCLRRDSHKIDNYLKLLKCRIIHNNNC",number of tumorspheres formed / tumorspheres formation,[1],slightly increased
same,increase of tumorspheres formation,[5],2.3 fold
same,Tumor size,McNeuA implanted mice,increase comparable to “no
same,Time to relapse,McNeuA implanted mice,no remission
same,number of ALDH-negative cells,[3],negligible affect
same,number of ALDH-positive cells,[3],negligible affect
same,tumorsphere formation (number and size of tumorspheres),[4],negligible affect
